According to patent publication US9957253B2, “Triaminopyrimidine compounds useful for preventing or treating malaria” (MMV MEDICINES FOR MALARIA VENTURE, priority 2014, dated 2018):
Where a name gives a salt, the structure may show the parent alone. Read-outs that look alike come from different tables or passages of the source.

How the values were obtained:
[1] = tested on: chloroquine sensitive NF54 strain of P. falciparum; assay: In vitro antiplasmodial activity (SYBR I), NF54 strain; assay type: cell-based, Plasmodium falciparum
Experimental: (§1) Measuring In Vitro Antiplasmodial Activity
(§2) The test samples were tested in duplicate on two separate occasions against chloroquine sensitive NF54 (MRA-1000, MR4, ATCC, Manassas, Va.) and chloroquine-resistant K1 strains of P. falciparum. A modified method of Trager and Jensen was employed to maintain continuous in vitro cultures of asexual blood stages of P. falciparum (Trageret al., 1976, Science, 193, 673-675). Quantitative assessment of antiplasmodial activity in vitro was determined using the SYBR I method as described earlier (Johnson et al., 2007, Antimicrob. Agents Chemother., 51, 1926-1933).
(§3) The percent inhibition with respect to the drug-free control was plotted against the logarithm of drug concentration. The growth inhibition curves were fitted by nonlinear regression using the sigmoidal dose-response (variable slope) formula to yield the concentration-response curves. […] Chloroquine diphosphate (CQ) (Sigma), artesunate (Sigma), and pyrimethamine were used as reference drugs in all experiments.

[2] = tested on: chloroquine-resistant K1 strain of P. falciparum; assay: In vitro antiplasmodial activity (SYBR I), K1 strain; assay type: cell-based, Plasmodium falciparum
Experimental: as §1, §2, §3

P. vivax field isolates = assay: Ex vivo drug susceptibility (schizont maturation) of P. vivax field isolates; assay type: cell-based; conditions: Plasmodium vivax, read-out: P. vivax IC50
Experimental: (§4) Further, compounds of the invention (Examples 2 and 13) were also tested against field isolates of falciparum and vivax malaria, along with three control antimalarials as described in the protocol below.
(§5) Ex Vivo Activity of Examples 2 and 13 Against Drug Resistant P. falciparum and P. Vivax Field Isolates
(§6) Standard antimalarial drugs chloroquine (CQ), amodiaquine (AQ), piperaquine (PIP), mefloquine (MFQ), and artesunate (AS) and compounds of the invention were prepared as 1 mg/mL stock solutions in H2O or dimethyl sulfoxide (DMSO) according to the manufacturers' instructions. Drug plates were pre-dosed by diluting the compounds in 50% Methanol followed by lyophilisation and stored at 4° C.
(§7) Plasmodium isolates were collected from patients attending malaria clinics in Timika (Papua, Indonesia), a region endemic for multi-drug-resistant strains of P. vivax and P. falciparum. Patients with symptomatic malaria presenting to an outpatient facility were recruited into the study if singly infected with P. falciparum or P. vivax, with a parasitaemia of between 2,000 μl-1 and 80,000 μl-1, and the majority (>80%) of parasites at ring stage of development. Venous blood (5 mL) was collected by venipuncture and after removal of host white blood cells by using cellulose (Sigma-Aldrich, Australia) filtration, packed infected red blood cells (iRBCs) were used for the ex vivo drug susceptibility assay.
(§8) Drug susceptibility of P. vivax and P. falciparum isolates was measured using a protocol modified from the WHO microtest as described previously (Marfurt et al., 2011, Antimicrob Agents Chemother., 55(9):4461). Two hundred μL of a 2% haematocrit Blood Media Mixture (BMM), consisting of RPMI 1640 medium plus 10% AB+ human serum (P. falciparum) or McCoy's 5 A medium plus 20% AB+ human serum (P. vivax), was added to each well of pre-dosed drug plates containing 11 serial concentrations (2-fold dilutions) of the antimalarials (maximum concentration shown in brackets) CQ (2,992 nM), AQ (158 nM), PIP (1,029 nM), MFQ (338 nM), AS (49 nM), and a compound of the invention (2,146 nM). A candle jar was used to mature the parasites at 37.0° C. for 35-56 hours.
(§9) Thick blood films made from each well were stained with 5% Giemsa solution for 30 minutes and examined microscopically. The number of schizonts per 200 asexual stage parasites was determined for each drug concentration and normalised to the control well. The dose-response data were analysed using nonlinear regression analysis (WinNonLn 4.1, Pharsight Corporation) and the IC50 value derived using an inhibitory sigmoid Emax model. […] Drug plate quality was assured by running schizont maturation assays (two independent experiments) with the chloroquine-resistant strain K1 and the chloroquine-sensitive strain FC27.
(§10) For microscopy slide reading QC, two randomly selected drugs per isolate were read by a second microscopist. […] If necessary, discrepant results were resolved by a third reading by an expert microscopist.

[3] = tested on: P. falciparum field isolates; assay: Ex vivo drug susceptibility (schizont maturation) of P. falciparum field isolates; assay type: cell-based; conditions: Plasmodium falciparum, read-out: P. falciparum IC50
Experimental: as §4, §5, §6, §7, §8, §9, §10

[4] = Identification of metabolites of Example 13, human liver microsomes or hepatocytes; assay type: in vitro ADME; conditions: metabolite of Example 13
Experimental: (§11) Identification of In Vivo Metabolites
(§12) Metabolites of Example 13 were identified both in vitro and in vivo using the following models: • In vitro: The compound of Example 13 was incubated with human (HLM) or rat (RLM) liver microsomes (1 mg/ml protein concentration in 100 mM phosphate buffer, pH 7.4) at a final concentration of 10 μM in the presence of 2 mM NADPH. The reactive intermediates were trapped by including 2 mM glutathione (GSH) or N-acetyl cysteine (NAC) in the reaction mix. • In vivo in bile duct cannulated rats: Example 13 was administered intravenously (IV) as a bolus through the jugular vein at a dose of 2 mg/kg or 4 mg/kg of body weight for control (n=3) or BDC rats (n=2), respectively. Blood samples were collected at 0.083, 0.25, 0.5, 1, 2, 4, 6, 8 and 24 h through the carotid artery, bile samples were collected at 0-2 h, 2-4 h, 4-6 h, 6-8 h and 8-24 h intervals and urine samples were collected at 0-8 h and 8-24 h intervals. The bile and urine samples were analyzed for the presence of parent and metabolites and blood samples were analyzed for the presence of parent.

[5] = Identification of metabolites of Example 13, rat liver microsomes or hepatocytes; assay type: in vitro ADME; conditions: metabolite of Example 13
Experimental: as §11, §12

[6] = Identification of metabolites of Example 13, mouse liver microsomes or hepatocytes; assay type: in vitro ADME; conditions: metabolite of Example 13
Experimental: as §11, §12

[7] = Plasmodium falciparum, NF54 strain, chloroquine sensitive, read-out: Pf IC50—NF54
[8] = Plasmodium falciparum, K1 strain, chloroquine-resistant, read-out: Pf IC50—K1
[9] = Plasmodium falciparum, NF54, read-out: Pf IC50—NF54
[10] = Plasmodium falciparum, K1, read-out: Pf IC50—K1

In the case of “(R)—N2-(5-Fluoro-4-cyclopropyl-6-methylpyridin-2-yl)-N4-(2-methyl-2H-1,2,3-triazol-4-yl)-5-(3-methylpiperazin-1-yl)pyrimidine-2,4-diamine dihydochloride [Example 12]”, the IC50 ([1]; NF54 strain, chloroquine sensitive, read-out: Pf IC50—NF54) is reported as 39 nM and the IC50 ([2]; K1 strain, chloroquine-resistant, read-out: Pf IC50—K1) is reported as 82 nM.

In the case of `Clc1ccc2c(N3CCN(CCCN4CCN(c5ccnc6cc(Cl)ccc56)CC4)CC3)ccnc2c1` [Piperaquine, piperaquine], the IC50 (P. vivax field isolates) is reported as 5.9 nM and the IC50 [3] is reported as 16.9 nM.

`Cc1nc(Nc2ncc(N3CCN(C)CC3)c(Nc3cn(C)nn3)n2)cc(C2CC2)c1F` [Example 1, N2-(4-cyclopropyl-5-fluoro-6-methylpyridin-2-yl)-N4-(1-methyl-1H-1,2,3-triazol-4-yl)-5-(4-methylpiperazin-1-yl)pyrimidine-2,4-diamine] gave an IC50 [1, 7] of 15 nM and an IC50 [2, 8] of 24 nM.

`Cc1nc(Nc2ncc(N3CCN(C)[C@H](C)C3)c(Nc3cn(C)nn3)n2)cc(C2CC2)c1F` [Example 14, (R)—N2-(4-cyclopropyl-5-fluoro-6-methylpyridin-2-yl)-5-(3,4-dimethylpiperazin-1-yl)-N4-(1-methyl-1H-1,2,3-triazol-4-yl)pyrimidine-2,4-diamine] gave an IC50 [1, 7] of 33 nM and an IC50 [2, 8] of 69 nM.

With `C[C@H]1[C@H](OC(=O)CCC(=O)O)O[C@@H]2O[C@@]3(C)CC[C@H]4[C@H](C)CC[C@@H]1[C@@]24OO3` [Artesunate, artesunate] the IC50 (P. vivax field isolates) was 4.79 nM and the IC50 [3] was 15.1 nM.

`Cc1nc(Nc2ncc(N3CCN[C@H](C)C3)c(Nc3cc(C)n(C)n3)n2)cc(C2CC2)c1C#N` [Example 6, (R)-4-cyclopropyl-6-((4-((1,5-dimethyl-1H-pyrazol-3-yl)amino)-5-(3-methylpiperazin-1-yl)pyrimidin-2-yl)amino)-2-methylnicotinonitrile dihydrochloride] gave an IC50 [1, 9] of 31 nM and an IC50 [2, 10] of 45 nM.

`CCn1nc(Nc2nc(Nc3cc(C4CC4)c(F)c(C)n3)ncc2N2CCN[C@H](C)C2)cc1C` [Example 3, (R)—N2-(4-cyclopropyl-5-fluoro-6-methylpyridin-2-yl)-N4-(1-ethyl-5-methyl-1H-pyrazol-3-yl)-5-(3-methylpiperazin-1-yl)pyrimidine-2,4-diamine dihydrochloride] showed an IC50 [1, 9] of 17 nM and an IC50 [2, 10] of 14 nM.

With `Cc1nc(Nc2ncc(N3CCN[C@H](C)C3)c(Nc3cn(C)nn3)n2)cc(C2CC2)c1F` [Example 4, (R)—N2-(4-cyclopropyl-5-fluoro-6-methylpyridin-2-yl)-N4-(1-methyl-1H-1,2,3-triazol-4-yl)-5-(3-methylpiperazin-1-yl)pyrimidine-2,4-diamine dihydrochloride] the IC50 [1, 9] was 33 nM and the IC50 [2, 10] was 51 nM.

With `Cc1nc(Nc2ncc(N3CCN[C@H](C)C3)c(Nc3cn(C)nn3)n2)cc(C2CC2)c1Cl` [Example 11, (R)—N2-(5-chloro-4-cyclopropyl-6-methylpyridin-2-yl)-N4-(1-methyl-1H-1,2,3-triazol-4-yl)-5-(3-methylpiperazin-1-yl)pyrimidine-2,4-diamine dihydrochloride] the IC50 [1, 9] was 30 nM and the IC50 [2, 10] was 50 nM.

With `Cc1nc(Nc2ncc(N3CCN(C)[C@H](C)C3)c(Nc3cnn(C)n3)n2)cc(C2CC2)c1F` [Example 15, (R)—N2-(4-cyclopropyl-5-fluoro-6-methylpyridin-2-yl)-5-(3,4-dimethylpiperazin-1-yl)-N4-(2-methyl-2H-1,2,3-triazol-4-yl)pyrimidine-2,4-diamine] the IC50 [1, 7] was 17 nM and the IC50 [2, 8] was 37 nM.

Work on `CCN(CC)CCCC(C)Nc1ccnc2cc(Cl)ccc12` (stereo not drawn) [Chloroquine, chloroquine, reference compound] yielded an IC50 (P. vivax field isolates) of 40.2 nM, an IC50 [3] of 60.8 nM and an IC50 [1, 9] of 11 nM. The IC50 [2, 10] was > 150 nM.

Work on `CCc1nc(N)nc(N)c1-c1ccc(Cl)cc1` [Pyrimethamine, pyrimethamine, reference compound] yielded an IC50 [1, 7] of 64 nM and an IC50 [2, 8] of 7900 nM.

For `Cc1nc(Nc2ncc(N3CCN[C@H](C)C3)c(Nc3cc(C)n(C)n3)n2)cc(C2CC2)c1F` [Example 2, (R)—N2-(4-cyclopropyl-5-fluoro-6-methylpyridin-2-yl)-N4-(1,5-dimethyl-1H-pyrazol-3-yl)-5-(3-methylpiperazin-1-yl)pyrimidine-2,4-diamine dihydrochloride], the IC50 (P. vivax field isolates) was 81 nM, the “Presence of proposed metabolite (N-demethylation) in liver microsomes or hepatocytes” value (“Presence of proposed metabolite” below) [4] was “✓” and the IC50 [3] was 63.6 nM. The IC50 [1, 9] was 14 nM, the IC50 [2, 10] was 19 nM and the “Presence of proposed metabolite” value [5] was “✓”. For the same molecule, the “Presence of proposed metabolite” value [6] was “✓”.

`Cc1nc(Nc2ncc(N3CCN[C@H](C)C3)c(Nc3cc(C)n(C)n3)n2)cc(C2CC2)c1Cl` [Example 5, (R)—N2-(5-chloro-4-cyclopropyl-6-methylpyridin-2-yl)-N4-(1,5-dimethyl-1H-pyrazol-3-yl)-5-(3-methylpiperazin-1-yl)pyrimidine-2,4-diamine dihydrochloride] gave an IC50 [1, 9] of 23 nM and an IC50 [2, 10] of 48 nM.

For `Cc1nc(Nc2ncc(N3CCN[C@H](C)C3)c(Nc3cc(C)n(C)n3)n2)cc(C2CCC2)c1F` [Example 9, (R)—N2-(4-cyclobutyl-5-fluoro-6-methylpyridin-2-yl)-N4-(1,5-dimethyl-1H-pyrazol-3-yl)-5-(3-methylpiperazin-1-yl)pyrimidine-2,4-diamine dihydrochloride], the IC50 [1, 9] was 25 nM and the IC50 [2, 10] was 48 nM.

`CCc1cc(Nc2ncc(N3CCNC(C)C3)c(Nc3cc(C)n(C)n3)n2)nc(C)c1F` (stereo in doubt) [Example 8, (R)—N4-(1,5-dimethyl-1H-pyrazol-3-yl)-N2-(4-ethyl-5-fluoro-6-methylpyridin-2-yl)-5-(3-methylpiperazin-1-yl)pyrimidine-2,4-diamine dihydrochloride] gave an IC50 [1, 9] of 35 nM and an IC50 [2, 10] of 44 nM.
